Reference: patent US20220218671A1 (BOEHRINGER INGELHEIM VETMEDICA GMBH, priority 2019, published 2022)

How the values were obtained:
[1] = tested on: client-owned dogs with persistent pathologic renal proteinuria due to CKD; assay: Prospective, block-randomized, double-blind clinical trial of telmisartan versus enalapril; UPC measurement (phases I-III); assay type: in vivo, dog; settings: for Average of UPC change day 30 / Average of UPC change day 60 / Average of UPC change day 90: change from baseline; for Average of UPC change day 30: day 30, all dogs; for Average of UPC change day 60: day 60, all dogs; for Average of UPC change day 60 / Average of UPC change day 90: up-titration allowed; for Average of UPC change day 90: day 90, all dogs; for proportion of dogs that experienced 50% reduction in UPC at day 30: telmisartan 1 mg/kg PO q 24 h, enalapril 0.5 mg/kg PO q 12 h, 16/20 versus 5/17 dogs, P=0.003; for Average of UPC change in dogs with added drug at Day 90, day 120: the other drug additionally administered between day 90 and day 120; for Average of percent UPC change day 30 / Average of percent UPC change day 60 / Average of percent UPC change day 90 / Average of percent UPC change day 120: percent change from baseline; for Average of percent UPC change day 120: the other drug (telmisartan or enalapril) additionally administered between day 90 and day 120
Excerpt: Experimental Methods and Design. A prospective, block-randomized, double-blind clinical trial has been carried out. Fifty-four client-owned dogs with persistent pathologic renal proteinuria have been recruited over a 2-year period.
Animals. Azotemic and non-azotemic dogs (N=54) with hypertensive and non-hypertensive CKD have been recruited prospectively from patients presented to the hospital. Dogs included as cases will have confirmed persistent pathologic renal proteinuria due to CKD; in order to be classified as such, fulfillment of the criteria described below will be required.
Inclusion criteria. […] Abdominal ultrasound findings consistent with CKD (bilaterally small, irregular kidneys) and absence of renal neoplasia have also been documented.
Exclusion criteria. […] Dogs with suspected or confirmed hyper-adrenocorticism and diabetes mellitus have been included if their disease is considered well controlled with medical therapy.
Patient grouping for block randomization: Once included in the study and based on the presence/degree of azotemia, dogs have been grouped according to the International Renal Interest Society (IRIS) classification scheme for CKD. Those classified as IRIS stages 2-4 (serum creatinine ≥1.4 mg/dL with inappropriately dilute urine [USG<1.030]) have been considered azotemic (AZ), and those classified as IRIS stage 1 (creatinine <1.4 mg/dL) have been considered non-azotemic (non-AZ). Within each of these two groups, dogs will then be stratified according to IRIS recommendations for arterial pressure (AP) substaging. According to this scheme, dogs with persistent average indirect arterial systolic BP<150 mm Hg will be classified as AP0 (minimal risk for target organ damage). Those with persistent average indirect arterial systolic BP150 mm Hg have been classified as AP1-3 (at risk for target organ damage). Four groups will thus be identified:
Baseline. On inclusion (day 0), all owners have been required to read/sign a form consenting to their pets' participation in the study. The following baseline data have been collected for each case: full physical examination (performed by one of the study investigators), fundic examination, blood pressure measurement, serum chemistry panel, urinalysis, abdominal ultrasound, UPC and urine culture. The results of screening tests, if performed within 2 weeks of inclusion in the study, may be used as baseline information. Baseline UPC has been defined as the average of two measurements, taken 2 weeks apart, prior to enrollment.
ARB/ACEi therapy. […] Owners have been provided with appropriate contact numbers in the event of an emergency.
Antihypertensive/other therapy. For dogs that are classified as AP3 (SBP180 mmHg; 200 mmHg in sighthounds), a calcium channel blocker (CCB; amlodipine, 0.1 mg/kg PO q 24 hours) has been administered contemporaneously. […] All dogs have been started or maintained on a commercially available diet formulated to be low in phosphorus and protein, for at least 1 month prior to enrollment.
Monitoring: The monitoring protocol followed the recommendations of the IRIS Canine GN Study Group Standard Therapy Subgroup. All dogs have been rechecked on day 7, at which time physical examination, SBP, serum creatinine (sCr) and serum potassium (K) have been evaluated. An increase in sCr of >30% compared to baseline or identification of moderate/severe hyperkalemia (serum K>6.5 mmol/L) or systolic hypotension (SBP<120) has prompt the investigator unmasking and removal of the patient from the study. For dogs in which average SBP of approximately 180 mm Hg was reliably identified (i.e. dogs classified as AP3), amlodipine will be up-titrated to 0.1 mg/kg PO BID. Thereafter, dogs classified as AP3 have been rechecked at 7-day intervals to ensure efficacy of therapy with adjustment of antihypertensive therapy.

[2] = tested on: naturally occurring proteinuria; settings: cited from earlier work
[3] = dogs without added drug at day 90

Structure (SMILES)	Average of UPC change day 30 [1]	Average of UPC change day 60 [1]	Average of UPC change day 90 [1]	proportion of dogs that experienced 50% reduction in UPC at day 30 [1] [%]	Average of UPC change in dogs with added drug at Day 90, day 30 [1]	Average of UPC change in dogs with added drug at Day 90, day 60 [1]	Average of UPC change in dogs with added drug at Day 90, day 90 [1]	Average of UPC change in dogs with added drug at Day 90, day 120 ([1]; day 120)	Average of UPC change in dogs without added drug at Day 90, day 30 [1, 3]	Average of UPC change in dogs without added drug at Day 90, day 60 [1, 3]	Average of UPC change in dogs without added drug at Day 90, day 90 [1, 3]	Average of UPC change in dogs without added drug at Day 90, day 120 ([1]; dogs without added drug at day 90, day 120)	Average of percent UPC change day 30 [1] [%]	Average of percent UPC change day 60 [1] [%]	Average of percent UPC change day 90 [1] [%]	Average of percent UPC change day 120 ([1]; day 120)	subjects experiencing an increase in proteinuria despite therapy ([2]; 3/14 subjects) [%]	subjects with clinically significant (i.e., 50%) reduction in proteinuria ([2]; 9/14 subjects) [%]
CCOC(=O)[C@H](CCc1ccccc1)N[C@@H](C)C(=O)N1CCC[C@H]1C(=O)O [Enalapril, enalapril]	−1.075	−1.260	−1.194	29.4	−0.30	−0.79	−1.05	−2.97	−0.71	−1.02	−0.68	−0.92	−27.34	−37.56	−30.57	−75.14^1%	22	64
CCCc1nc2c(C)cc(-c3nc4ccccc4n3C)cc2n1Cc1ccc(-c2ccccc2C(=O)O)cc1 [Telmisartan, telmisartan]	−2,516	−3.769	−4.341	80	−4.20	−4.83	−4.83	−5.84	−1.82	−2.81	−2.01	–	−57.01	−65.87	−68.79	−76.70^2%	–	–
